Series [1] concerns aged rats (24 months). In words: Passive avoidance response in aged rats (24 months). Type of series: in vivo. The settings on record: 20 mg/kg 60 days, PAR reproduction 24 hours after learning; for Number of the rats, which did not entry dark chamber (%): 20 mg/kg. How it is done:
(§1) White nondescript male rats (Wistar line): to adult animals at age 3 months with body weight 250-300 g and aged 24 month old animals with body weight 350-450 g were used in the study. Nooglutyl at dose level 20 mg/kg and Compound I were administered to aged rats intraperitoneally for 2 months followed by assessment of the effect on learning capacity impaired by age and neurological deficit. Analysis of variance with Student's test, variant portion method and U-test were employed for data processing.
Impact of Compound I on memory disorders in aged animals. To develop passive avoidance response (PAR) in rats the unit supplied by Lafayette Instrument Co., (USA) (Ader et al. Retention of a passive avoidance response as a function of the intensity and duration of electric shock. Psycho Sci. 1972, v. 26, p. 125-128; Voronina T. A. et al. “Textbook for Experimental (Preclinical Study) of novel pharmacological compounds”. Moscow, Medicina. 2005, p. 253-263 and 308-320) was used. […] Animals preferring illuminated platform were not used in this experiment. In the dark chamber the animal received single pain stimulus with electric current (0.45 mA), duration of the stimulus was determined from the running out of the animal from the dark chamber.

Series [2] relates to mice exposed to hypobaric hypoxia. In words: Acute hypobaric hypoxia in flow-exhaust chamber. Type of series: in vivo. As for the experimental part: White nondescript male mice with body weight 22-28 g were used in the experiments. Each dose level was studied in 10 animals. Control animals received equivalent volume of distilled water. Nooglutyl was used as reference agent. Study compounds were administered intraperitoneally 40 minutes before the experiment.
Acute hypobaric hypoxia was simulated in flow-exhaust chamber. Pressure was measured with altimeter, and elevation speed with variometer. The animals were “elevated” at the speed 20 m/s to the stage at 11000 m. The exposure lasted 10 minutes. Then the animals were mover down to the baseline level for 5 minutes. Hypoxia with hypercapnia in hermovolume was created by placement of the animal into 200 ml hermetically sealed glass vessels. Life period of the animals under hypoxic conditions was recorded. Each group comprised 10 animals.

Series [3] relates to aged rats (24 months). In words: Motor coordination of aged rats on rotating rod. Type of series: in vivo. To be noted: for Number of the animals (%), which obtained the skill, By attempt 5 / Number of the animals (%), which obtained the skill, By attempt 15 / Number of the animals (%), which obtained the skill, By attempt 10: aged rats 24 months, 20 mg/kg 60 days, rotating rod 2 minutes; for Number of the animals (%), which obtained the skill, By attempt 10: 20 mg/kg; for Number of attempts required for learning to 50% of the animals: aged rats treated for 2 months, untreated aged animals 17th attempt. How it is done: as §1
To assess neurological deficit in aged animals (disturbed coordination and capacity for learning motor responses) the rats were placed on the rotating rod. The number of attempts required to obtain the skill of holding on the rotating rod for 2 minutes was registered. […] Under similar conditions only 25% of aged rats obtained this skill starting from the 11th-14th attempt. […] 60% of aged rats treated with nooglutyl and 66% of aged rats treated with Compound I for 2 months learned the skill by the 10th attempt.

For series [4], the system named is rats with massive cortical ischemia. In words: Model of massive cortical ischemia (occlusion of middle cerebral artery): ischemic damage of cerebral cortex. It counts as in vivo. To be noted: for Intensity of ischemic damage of cerebral cortex (slice score, points), slice 1 / Intensity of ischemic damage of cerebral cortex (slice score, points), slice 2 / Intensity of ischemic damage of cerebral cortex (slice score, points), slice 3 / Intensity of ischemic damage of cerebral cortex (slice score, points), slice 4 / Intensity of ischemic damage of cerebral cortex (slice score, points), slice 5: 72 hours after OMCA. How it is done: White nondescript male rats with body weight 350-450 g anesthetized with chloral hydrate (400 mg/kg, intraperitoneally) were used in the experiments. After ligation of left carotid occlusion of middle cerebral artery (OMCA) was made under the microscope (magnification 14.0×3.3) proximal to bifurcation to frontal and parietal branches (S. T. Chen et al., Stroke, 1986, v. 17, No 4, p. 738-743).
After the surgery the animals were randomized into 3 groups. Experimental animals received Compound I or nooglutyl intraperitoneously 30 minutes, 2, 24, and 48 hours after the surgery. Control animals at the same time points received saline (0.9% sodium chloride solution). 72 hours after OMCA the animals were decapitated. Material frozen at −20° C. was used for preparation of 5 frontal slices 2.5 mm thick, which were painted with 2,3,5-triphenyltetrazolium solution (TPTZ). Auc1 morphometric program was used to perform planimetria, determination of affected zone extent and percentage of affected zone extent in relation to volume of ipsilateral hemisphere. The surgery results in creation of vast ischemic damage of the brain cortex, which is localized within frontal-parietal and dorsal-lateral zones. To compare intensity of the changes in different slices arbitrary scale was used, with 75%, 60%, 45%, 20%, 5%, and 0% affection of hemisphere assessed as 2.5 points, 2 points, 1.5 points, 1 point, 0.5 points, and 0 points, respectively.

Series [5] can be described thus: in vivo. The settings on record: male, white nondescript (outbred), mouse, ip. How it is done:
The study of acute daily toxicity of Compound I was carried out on white nondescript male mice with body weight 25-28 g, which lived in habitual conditions in vivarium and received feed and water ad libitum. Single dose of Compound I was administered intraperitoneally. The animals were under observation for 2 days after the dosing. The dose levels of Compound I used in the toxicity study were as follows: 800 mg/kg, 1000 mg/kg, 1200 mg/kg, 1500 mg/kg, 1600 mg/kg. Compound I was dissolved in distilled water and administered in 0, 1 ml per 10 g of the body weight of the animal when the doses 800 mg/kg and 1000 mg/kg, and in 0.2 ml per 10 g of the body weight when the doses 1200 mg/kg, 1500 mg/kg, 1600 mg/kg were used. Control animals received distilled water in the volume 0.2 ml per 10 g of the body weight.
Each dose group comprised 10 animals.

Where [6] appears, read: 30 mg/kg intraperitoneally 40 minutes before the experiment.
[7] abbreviates: 60 mg/kg intraperitoneally 40 minutes before the experiment.
Where [8] appears, read: 40 mg/kg intraperitoneally 30 minutes, 2, 24, 48 hours after surgery.
The mark [9] stands for this setting: 50 mg/kg intraperitoneally 30 minutes, 2, 24, 48 hours after surgery.

The LD50 is the dose expected to kill half of the subjects tested.

Where “and” joins values, the source holds several entries; their conditions need not be identical. Equal values may be shown once. Marks after values point to notes of the source that are not given here.

With `O=C([O-])CC[C@H](NC(=O)c1cncc(O)c1)C(=O)[O-].[Ca+2]` [Compound I, Calcium N-(5-hydroxynicotinoyl)-L-glutamate], in series [1], the “Latent period of entry to dark chamber (c)” value was 96.9 ± 16.1 c and the “Number of the rats, which did not entry dark chamber (%)” value was 60%. In series [2] (setting [6]), the “Life interval of mice (minutes) exposed to hypobaric hypoxia” value (“Life interval of mice (minutes) exposed” for short) turned out to be 6.51 ± 0.82 min. Also, the “Life interval of mice (minutes) exposed” value in series [2] (setting [7]) is 9.17 ± 0.91 min. Moreover, in series [3], the “Number of the animals (%), which obtained the skill, By attempt 5” value stood at 20%; the “Number of the animals (%), which obtained the skill, By attempt 15” value is 66# %; the “Number of the animals (%), which obtained the skill, By attempt 10” value (“Number of the animals (%) … By attempt 10” below) is 66% and 60# %; the “Number of attempts required for learning to 50% of the animals” value amounted to 6 attempt. Besides, in series [4] (40 mg/kg after ischemia-inducing exposure), the “Total affected area (percentage of volume of ipsilateral hemisphere)” value was determined as 10.54±1.84%. In series [4] (setting [8]), the “Intensity of ischemic damage of cerebral cortex (slice score, points), slice 1” value is reported as 0.08 ± 0.01 points; the “Intensity of ischemic damage of cerebral cortex (slice score, points), slice 2” value turned out to be 0.92 ± 0.12 points; the “Intensity of ischemic damage of cerebral cortex (slice score, points), slice 3” value amounted to 0.7 ± 0.19 points; the “Intensity of ischemic damage of cerebral cortex (slice score, points), slice 4” value is 0.58 ± 0.14 points. For the same compound, the “Intensity of ischemic damage of cerebral cortex (slice score, points), slice 5” value in series [4] (setting [8]) is 0.2 ± 0.15 points. Besides, the “Decrease of total affected extent versus control” value in series [4] (40 mg/kg, p<0.05) worked out at 47.3%. The same compound yielded an LD50 at 2 days in series [5] of 1150 mg/kg.

Regarding `O=C(O)CC[C@H](NC(=O)c1cncc(O)c1)C(=O)O` [Nooglutyl, N-(5-hydroxynicotinoyl)-L-glutamic acid, reference compound], in series [1], the “Latent period of entry to dark chamber (c)” value came to 97.1 ± 20.3 c and the “Number of the rats, which did not entry dark chamber (%)” value is given as 60%. Besides, the “Life interval of mice (minutes) exposed” value in series [2] (setting [6]) amounted to 4.1 ± 0.77 min. In series [2] (setting [7]), the “Life interval of mice (minutes) exposed” value was found to be 7.68 ± 0.54 min. Besides, in series [3], the “Number of the animals (%), which obtained the skill, By attempt 5” value stood at 20%; the “Number of the animals (%), which obtained the skill, By attempt 15” value is reported as 60# %; the “Number of the animals (%) … By attempt 10” value is recorded as 60# %; the “Number of attempts required for learning to 50% of the animals” value stood at 7 attempt. Also, the “Number of the animals (%) … By attempt 10” value in series [3] (listed as nooglutyl) came out at 60%. Moreover, the “Total affected area (percentage of volume of ipsilateral hemisphere)” value in series [4] (50 mg/kg after ischemia-inducing exposure) is 14.3±2.14%. In series [4] (setting [9]), the “Intensity of ischemic damage of cerebral cortex (slice score, points), slice 1” value was 0.28 ± 0.06 points; the “Intensity of ischemic damage of cerebral cortex (slice score, points), slice 2” value is given as 1.12 ± 0.17 points; the “Intensity of ischemic damage of cerebral cortex (slice score, points), slice 3” value is on record as 1.01 ± 0.11 points; the “Intensity of ischemic damage of cerebral cortex (slice score, points), slice 4” value turned out to be 0.59 ± 0.19 points. Also, in series [4] (setting [9]), the “Intensity of ischemic damage of cerebral cortex (slice score, points), slice 5” value stood at 0.18 ± 0.14 points. In series [5], this compound came in with a median lethal dose (LD50) at 2 days of 1200 mg/kg.

Source of the values: patent US8030493B2, “Monovalent and divalent salts of N-(5-hydroxynicotinoil) -L-glutamic acid exhibiting psychotropic (antidepressant and anxiolytic), neuroprotective, geroprotective and cerebroprotective action” (Obschestvo S Ogranichennoy Otvetstvennostyu “Natsionalnaya …, priority 2006, dated 2011).
